Series [1] concerns skin elasticity of the back. The series is described as follows: Model of hormone induced skin ageing (menopause model, bilateral ovarectomy). Type of series: in vivo, female hairless mice. The settings on record: microemulsion of example 6 onto the back twice daily for two months after ovary removal; vehicle control animals showed the reduction. An excerpt: By using the microemulsion as described in example 6, the effect of FORM 1 of 1,6-Bis [3-(3-carboxymethylphenyl)-4-(2-α-D-mannopyranosyloxy)-phenyl]hexane (compound of formula (I)) on hormone induced skin ageing is investigated employing a menopause model according to methods known to the skilled person. Five-week old female hairless mice are subjected to bilateral ovarectomy, and used as an animal model of menopause. For two months from immediately after ovary extraction, the formulation containing FORM 1 of compound of formula (I) is applied onto the back twice daily. As a control, the formulation without FORM 1 of compound of formula (I) is applied in a similar protocol (vehicle control). […] Two months after ovary removal, skin elasticity of the back is measured using a Cutometer (COURAGE KHAZAKSA).

Another series deals with photoageing. Briefly: Protective effect against photoageing, chronic solar-simulated UV radiation. Type of series: in vivo, hairless mice. Particulars: microemulsion of example 6, topical twice daily during 30 weeks UV-exposure; histology. An excerpt:
By using the microemulsion as described in example 6, the protective effect of FORM 1 of 1,6-Bis [3-(3-carboxymethylphenyl)-4-(2-α-D-mannopyranosyloxy)-phenyl]hexane (compound of formula (I)) against photoageing (hairless mice) is investigated according to methods known to the skilled person. Hairless mice are exposed to chronic solar-simulated UV radiation for 30 weeks.

For series [2], the system named is isolated perfused porcine fore limb. The series is described as follows: isolated perfused porcine fore limb transdermal penetration assay. The settings on record: microemulsion of example 6; 5 h application time; LC/MS. Type of series: in vitro ADME. The protocol: By using the microemulsion as described in example 6 skin penetration studies of FORM 1 of 1,6-Bis [3-(3-carboxymethylphenyl)-4-(2-α-D-mannopyranosyloxy)-phenyl]hexane employing an isolated perfused porcine fore limb transdermal penetration assay using pig porcine is performed according to the methods known to the skilled person. The isolated perfused porcine fore limb is an assay system, which retains intact anatomy and skin, muscle, blood vessel and bone morphology. The organ is kept vitalized by perfusion with a blood-based perfusion medium for up to 6 h. This system allows monitoring of transdermal, resorption, penetration or permeation of pharmaceuticals and cosmetics. 3 application sites are choosen and surrounded by Leukosilk. On each of these areas 10 μl of microemulsion are applied with a pipette and distributed with the pipette tip.
For three additional application sites, the cotton pads of three Hill Top chambers in total, are soaked and saturated with microemulsion and applied to skin. After 5 h application time Hill Top chambers are removed and the unabsorbed microemulsion from the free sites is removed with a dry swab each. 20 Tesa strips are collected from each of the six applications sites. […] Swabs, strips, skin biopsys are analysed for content of FORM 1 of 1,6-Bis [3-(3-carboxymethylphenyl)-4-(2-α-D-mannopyranosyloxy)-phenyl]hexane with LC/MS. […]

The subject of the next series is porcine skin. Briefly: Franz diffusion cell penetration assay using porcine skin. Type of series: in vitro ADME. The settings on record: microemulsion of example 6; 10.4 μl on 1000 μm porcine skin; 8 h; 37° C.; LC/MS. The protocol: By using the microemulsion as described in example 6, skin penetration studies of FORM 1 of 1,6-Bis [3-(3-carboxymethylphenyl)-4-(2-α-D-mannopyranosyloxy)-phenyl]hexane in employing a Franz diffusion cell penetration assay using porcine skin is performed according to the methods known to the skilled person. Porcine skin samples (6 in total, 2 from each animal, 3 female animals in total), 1000 μm thick, with the stratum corneum facing up are placed onto the lower part of a Franz diffusion cell. The cell is rinsed with medium tempered to 37° C. to prevent the skin from drying out and the system is equilibrated for 30 minutes. 10.4 μl of microemulsion as described in example 6 is applied to the dry upper side of the epidermis using a pipette and the microemulsion is distributed with an inoculation loop. Medium is collected every hour.
After 8 h the experiment is finished. The skin is punched out and the surface of the skin is swabed to removed excess microemulsion. The dry surface is stripped 20 times using Tesafilm. Swabs, strips, medium and skin samples are analysed for content of FORM 1 of 1,6-Bis [3-(3-carboxymethylphenyl)-4-(2-α-D-mannopyranosyloxy)-phenyl]hexane by LC/MS. On average 4% of the applied amount of FORM 1 of 1,6-Bis [3-(3-carboxymethylphenyl)-4-(2-α-D-mannopyranosyloxy)-phenyl]hexane in the microemulsion as described in example 6 penetrates into skin.

The subject of a further series is wrinkles of crow's feet. The series is described as follows: Anti-wrinkle efficacy, crow's feet skin replicas with image analysis. Type of series: in vivo, healthy subjects. Particulars: microemulsion of example 6, twice a day for 28 days; treated vs untreated crow's feet; all subjects. An excerpt: By using the microemulsion as described in example 6, the anti-wrinkle effect of FORM 1 of 1,6-Bis [3-(3-carboxymethylphenyl)-4-(2-α-D-mannopyranosyloxy)-phenyl]hexane (compound of formula (I)) is investigated according to methods known to the skilled person. 40 healthy subjects aged between 34 and 59 years, comprising 35 women and 5 men are selected. The formulation containing FORM 1 of the compound of formula (I), is applied twice a day, in the morning and in the evening, to one temporal zone of the face (crow's feet) for 28 days. The other zone remains untreated and serves as a control. An impression (skin replicas) is made from the control and treated zone at time 0 and after 28 days of treatment using SILFO impression material (Flexico, England).

The subject of series [3] is photoageing of human skin. The series is described as follows: Protective effect against photoaging of human skin, solar simulated UV radiation, immunohistology of biopsies. Type of series: in vivo. The settings on record: microemulsion of example 6, topical before 2 MED UV; buttock skin biopsies 24 hours after exposition; vehicle control skin showed it. From the text: By using the microemulsion as described in example 6, the protective effect of FORM 1 of 1,6-Bis [3-(3-carboxymethylphenyl)-4-(2-α-D-mannopyranosyloxy)-phenyl]hexane (compound of formula (I)) against photoageing of human skin is investigated according to methods known to the skilled person. Two areas of buttock skin (each approximately 2×2 cm) of 10 healthy male white volunteers are exposed to erythematogenic doses (2 MED) of solar simulated UV radiation. Before radiation one area is topically treated with the formulation containing FORM 1 of compound of formula (I), the other with the formulation without FORM 1 of compound of formula (I) (vehicle control). 24 hours after exposition, biopsies are taken from both areas and as control from an area that is not exposed to radiation.

As for `O=C(O)Cc1cccc(-c2cc(CCCCCCc3ccc(O[C@H]4O[C@H](CO)[C@@H](O)[C@H](O)[C@@H]4O)c(-c4cccc(CC(=O)O)c4)c3)ccc2O[C@H]2O[C@H](CO)[C@@H](O)[C@H](O)[C@@H]2O)c1` [FORM 1 of compound of formula (I), 1,6-Bis [3-(3-carboxymethylphenyl)-4-(2-α-D-mannopyranosyloxy)-phenyl]hexane], the “significantly reduced skin elasticity (Cutometer) as compared to normal animals” value in series [1] was “This was not the case”. Besides, in the series with photoageing, the degraded dermal collagen result was “protected significantly”, the “deposition of glycosamisnoglycans in the lower dermis” value is reported as “protected significantly”, the “dermal mast cell number” value is reported as “protected significantly” and the epidermal hyperplasia result is recorded as “protected significantly”. Moreover, the focal elastotic deposits entry in the series on photoageing is “protected significantly”. Besides, the “applied amount that penetrates into skin (on average)” value in series [2] was 5%. In addition, the “applied amount that penetrates into skin (on average)” value in the series with porcine skin was determined as 4%. In the series with wrinkles of crow's feet, the depth of wrinkles result is reported as “significantly reduces”, the length of wrinkles result is “significantly reduces” and the number of wrinkles entry is “significantly reduces”. Also, in series [3], the “matrix-metallo-proteinase-1 (MMP-1)” value is given as “This is not the case”, the “matrix-metallo-proteinase-9 (MMP-9)” value is recorded as “This is not the case” and the “strong infiltration of neutrophils” value is “This is not the case”.

Values taken from patent US20100093653A1, “Use of 1,6-Bis [3-(3-carboxymethylphenyl)-4-(2-alpha-D-mannopyranosyl-oxy)-phenyl] hexane for the preparation of cosmetic compositions” (Revotar Biopharmaceuticals AG, priority 2006, published 2010).
